The values below come from ChEMBL document CHEMBL4507276 (2021).

For experiment [1], the target named is Death-associated protein kinase 3 (Homo sapiens) (UniProt O43293). As to conditions: Compound concentration 1000.0 nM.
In experiment [2] the target is Mitogen-activated protein kinase kinase kinase 14 (Homo sapiens) (UniProt Q99558). As to conditions: Compound concentration 1000.0 nM.
Experiment [3] concerns the target Mitogen-activated protein kinase kinase kinase 13 (Homo sapiens) (UniProt O43283). As to conditions: Compound concentration 1000.0 nM.
Experiment [4] deals with Insulin receptor (Homo sapiens) (UniProt P06213). Nature of the experiment: INSR Invitrogen selectivity data (BI). Conditions: Compound concentration 3.0 uM.
Insulin receptor (Homo sapiens), sequence (P06213 28-758 limits assumed): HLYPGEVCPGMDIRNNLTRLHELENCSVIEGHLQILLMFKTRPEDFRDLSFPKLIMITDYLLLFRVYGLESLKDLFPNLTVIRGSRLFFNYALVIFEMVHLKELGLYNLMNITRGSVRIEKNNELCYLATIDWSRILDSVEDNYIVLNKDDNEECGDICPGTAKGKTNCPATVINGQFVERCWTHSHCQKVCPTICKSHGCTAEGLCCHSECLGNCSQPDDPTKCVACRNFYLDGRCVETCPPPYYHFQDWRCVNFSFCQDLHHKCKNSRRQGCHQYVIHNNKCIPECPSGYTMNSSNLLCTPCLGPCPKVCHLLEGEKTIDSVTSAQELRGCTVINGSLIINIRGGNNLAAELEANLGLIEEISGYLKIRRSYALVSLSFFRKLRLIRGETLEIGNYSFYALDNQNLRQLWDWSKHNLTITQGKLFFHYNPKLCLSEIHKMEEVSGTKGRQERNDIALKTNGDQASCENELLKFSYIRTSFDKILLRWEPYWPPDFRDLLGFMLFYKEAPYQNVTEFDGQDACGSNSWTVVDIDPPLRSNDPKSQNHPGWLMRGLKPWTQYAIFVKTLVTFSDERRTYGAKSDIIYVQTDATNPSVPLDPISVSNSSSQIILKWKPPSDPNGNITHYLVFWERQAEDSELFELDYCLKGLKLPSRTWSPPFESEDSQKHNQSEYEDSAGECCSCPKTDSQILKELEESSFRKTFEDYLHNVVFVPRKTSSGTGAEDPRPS
Insulin receptor (Homo sapiens), sequence (P06213 763-1382 limits assumed): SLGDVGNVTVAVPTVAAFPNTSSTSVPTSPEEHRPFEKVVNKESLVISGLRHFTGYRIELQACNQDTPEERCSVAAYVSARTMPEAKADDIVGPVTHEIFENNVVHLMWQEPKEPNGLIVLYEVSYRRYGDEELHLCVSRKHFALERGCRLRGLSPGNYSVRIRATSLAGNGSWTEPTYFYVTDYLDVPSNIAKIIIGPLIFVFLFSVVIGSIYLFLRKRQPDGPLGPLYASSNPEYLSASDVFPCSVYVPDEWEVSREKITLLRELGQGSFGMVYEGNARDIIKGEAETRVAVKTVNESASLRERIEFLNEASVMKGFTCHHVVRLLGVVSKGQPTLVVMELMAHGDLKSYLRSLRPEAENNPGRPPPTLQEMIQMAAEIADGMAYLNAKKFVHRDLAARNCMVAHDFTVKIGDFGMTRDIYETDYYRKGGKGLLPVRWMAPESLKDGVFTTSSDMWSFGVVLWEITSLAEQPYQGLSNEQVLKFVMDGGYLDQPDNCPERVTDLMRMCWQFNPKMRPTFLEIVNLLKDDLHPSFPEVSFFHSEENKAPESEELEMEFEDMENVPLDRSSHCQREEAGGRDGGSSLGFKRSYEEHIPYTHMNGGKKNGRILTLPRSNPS
The target in experiment [5] is Casein kinase II subunit alpha (Homo sapiens) (UniProt P68400). Nature of the experiment: CSNK2A1 Invitrogen selectivity data (BI). Conditions: Compound concentration 3.0 uM.
The target in experiment [6] is T1, Calcium/calmodulin-dependent protein kinase type IV (Homo sapiens) (UniProt Q16566).
T1 sequence (whole entry): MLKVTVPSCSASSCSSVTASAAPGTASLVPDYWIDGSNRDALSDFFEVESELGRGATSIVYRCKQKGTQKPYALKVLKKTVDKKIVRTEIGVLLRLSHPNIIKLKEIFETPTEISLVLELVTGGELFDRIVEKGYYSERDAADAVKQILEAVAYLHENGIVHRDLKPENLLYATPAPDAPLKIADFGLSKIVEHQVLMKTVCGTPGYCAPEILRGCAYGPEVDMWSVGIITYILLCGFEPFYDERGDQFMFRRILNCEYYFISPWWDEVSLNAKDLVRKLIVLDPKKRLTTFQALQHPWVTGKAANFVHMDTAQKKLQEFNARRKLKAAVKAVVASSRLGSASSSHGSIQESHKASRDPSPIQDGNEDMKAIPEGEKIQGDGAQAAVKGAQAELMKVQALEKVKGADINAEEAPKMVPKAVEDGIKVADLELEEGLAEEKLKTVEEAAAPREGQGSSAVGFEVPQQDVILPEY
Nature of the experiment: CAMK4 Invitrogen selectivity data (BI). Conditions: Compound concentration 3.0 uM.

The target of experiment [7] is Vascular endothelial growth factor receptor 3 (Homo sapiens) (UniProt P35916). Nature of the experiment: FLT4 Invitrogen selectivity data (BI). As to conditions: Compound concentration 3.0 uM.
Experiment [8] concerns the target T2, Myotonin-protein kinase (Homo sapiens) (UniProt Q09013).
T2 sequence (whole entry): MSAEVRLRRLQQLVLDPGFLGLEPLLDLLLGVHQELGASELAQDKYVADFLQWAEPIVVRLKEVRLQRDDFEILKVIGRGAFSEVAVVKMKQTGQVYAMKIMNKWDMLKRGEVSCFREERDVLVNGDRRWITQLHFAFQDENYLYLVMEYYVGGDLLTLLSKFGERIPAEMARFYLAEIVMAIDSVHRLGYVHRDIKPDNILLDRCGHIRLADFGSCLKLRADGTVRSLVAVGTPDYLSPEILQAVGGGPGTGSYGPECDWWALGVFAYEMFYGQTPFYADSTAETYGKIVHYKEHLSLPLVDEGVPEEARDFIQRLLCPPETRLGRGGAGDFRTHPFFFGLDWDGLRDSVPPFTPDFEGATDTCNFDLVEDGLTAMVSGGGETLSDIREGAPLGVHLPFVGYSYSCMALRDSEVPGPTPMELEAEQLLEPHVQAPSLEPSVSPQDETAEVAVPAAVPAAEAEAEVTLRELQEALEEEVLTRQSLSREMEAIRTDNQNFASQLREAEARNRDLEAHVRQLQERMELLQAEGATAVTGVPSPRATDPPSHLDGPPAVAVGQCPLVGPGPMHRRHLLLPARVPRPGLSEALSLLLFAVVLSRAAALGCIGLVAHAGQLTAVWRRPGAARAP
Nature of the experiment: DMPK Invitrogen selectivity data (BI). As to conditions: Compound concentration 3.0 uM.

The target of experiment [9] is Tyrosine-protein kinase CSK (Homo sapiens) (UniProt P41240). Nature of the experiment: CSK Invitrogen selectivity data (BI). Conditions: Compound concentration 3.0 uM.
Tyrosine-protein kinase CSK (Homo sapiens), sequence (P41240 2-450 limits assumed): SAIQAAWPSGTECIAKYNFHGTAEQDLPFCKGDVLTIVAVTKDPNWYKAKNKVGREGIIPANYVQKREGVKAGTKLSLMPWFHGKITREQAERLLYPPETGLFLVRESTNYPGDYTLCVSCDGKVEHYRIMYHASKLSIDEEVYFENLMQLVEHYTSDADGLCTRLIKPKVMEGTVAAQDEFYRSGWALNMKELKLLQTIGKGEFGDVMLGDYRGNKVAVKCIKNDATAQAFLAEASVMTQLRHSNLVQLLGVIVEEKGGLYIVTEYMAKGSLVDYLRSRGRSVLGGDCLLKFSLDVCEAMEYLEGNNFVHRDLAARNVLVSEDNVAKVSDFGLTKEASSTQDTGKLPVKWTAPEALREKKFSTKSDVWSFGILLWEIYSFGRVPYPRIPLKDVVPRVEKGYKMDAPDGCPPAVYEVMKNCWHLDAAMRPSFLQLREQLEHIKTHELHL
In experiment [10] the target is High affinity choline transporter 1 (Homo sapiens) (UniProt Q9GZV3). As to the kind of experiment: CHT1/H Cerep selectivity data (BI). As to conditions: Compound concentration 20.0 uM.
Experiment [11] addresses Arachidonate 5-lipoxygenase-activating protein (Homo sapiens, UniProt P20292). As to the kind of experiment: Functional inhibition in mouse whole blood. In kind it is tissue-based. As to conditions: target entry is the homologue from another species.
In experiment [12] the test system is Proto-oncogene tyrosine-protein kinase receptor Ret (Homo sapiens), P07949 [Y791F]. As to the kind of experiment: RET Y791F Invitrogen selectivity data (BI). Conditions: Compound concentration 3.0 uM.
The target of experiment [13] is Nociceptin receptor (Homo sapiens) (UniProt P41146). Nature of the experiment: ORL1/H Cerep selectivity data (BI). As to conditions: Compound concentration 20.0 uM.
Experiment [14] addresses cGMP-specific 3',5'-cyclic phosphodiesterase (Homo sapiens) (UniProt O76074). As to the kind of experiment: PDE5 Cerep selectivity data (BI). Conditions: Compound concentration 20.0 uM.
The target in experiment [15] is Histamine H3 receptor (Homo sapiens) (UniProt Q9Y5N1). Nature of the experiment: H3/NAMEH_H Cerep selectivity data (BI). As to conditions: filed as antagonist, Compound concentration 20.0 uM.
Histamine H3 receptor (Homo sapiens), sequence (Q9Y5N1 whole entry): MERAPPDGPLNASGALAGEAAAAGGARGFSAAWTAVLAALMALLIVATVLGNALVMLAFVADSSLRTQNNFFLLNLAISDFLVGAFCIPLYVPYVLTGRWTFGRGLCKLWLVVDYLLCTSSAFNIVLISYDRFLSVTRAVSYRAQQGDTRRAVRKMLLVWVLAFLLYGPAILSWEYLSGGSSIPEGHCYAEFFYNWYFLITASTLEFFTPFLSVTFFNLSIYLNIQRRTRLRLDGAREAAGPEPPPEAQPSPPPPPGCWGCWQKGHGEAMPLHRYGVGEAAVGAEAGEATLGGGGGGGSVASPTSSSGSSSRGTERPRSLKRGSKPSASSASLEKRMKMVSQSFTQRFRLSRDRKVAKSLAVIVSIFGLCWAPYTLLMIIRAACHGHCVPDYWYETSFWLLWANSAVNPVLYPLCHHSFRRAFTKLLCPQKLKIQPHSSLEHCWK
Experiment [16] has as its target Tumor necrosis factor (Homo sapiens) (UniProt P01375). As to the kind of experiment: TNFALPHA/H Cerep selectivity data (BI). Conditions: Compound concentration 20.0 uM.
Experiment [17] has as its target Sodium-dependent serotonin transporter (Homo sapiens) (UniProt P31645). As to the kind of experiment: 5HTTRANS/H Cerep selectivity data (BI). Conditions: Compound concentration 20.0 uM.
Experiment [18] has as its target Phosphorylase b kinase gamma catalytic chain, skeletal muscle/heart isoform (Homo sapiens) (UniProt Q16816). As to the kind of experiment: PHKG1 Invitrogen selectivity data (BI). As to conditions: Compound concentration 3.0 uM.
The subject of experiment [19] is Tyrosine-protein kinase JAK2 (Homo sapiens), O60674 [V617F]. Nature of the experiment: JAK2 V617F Invitrogen selectivity data (BI). Conditions: Compound concentration 3.0 uM.
For experiment [20], the target named is Protein kinase C delta type (Homo sapiens) (UniProt Q05655). Nature of the experiment: PRKCD Invitrogen selectivity data (BI). As to conditions: Compound concentration 3.0 uM.
Experiment [21] deals with T3, Serine/threonine-protein kinase 3 (Homo sapiens) (UniProt Q13188).
T3 sequence (whole entry): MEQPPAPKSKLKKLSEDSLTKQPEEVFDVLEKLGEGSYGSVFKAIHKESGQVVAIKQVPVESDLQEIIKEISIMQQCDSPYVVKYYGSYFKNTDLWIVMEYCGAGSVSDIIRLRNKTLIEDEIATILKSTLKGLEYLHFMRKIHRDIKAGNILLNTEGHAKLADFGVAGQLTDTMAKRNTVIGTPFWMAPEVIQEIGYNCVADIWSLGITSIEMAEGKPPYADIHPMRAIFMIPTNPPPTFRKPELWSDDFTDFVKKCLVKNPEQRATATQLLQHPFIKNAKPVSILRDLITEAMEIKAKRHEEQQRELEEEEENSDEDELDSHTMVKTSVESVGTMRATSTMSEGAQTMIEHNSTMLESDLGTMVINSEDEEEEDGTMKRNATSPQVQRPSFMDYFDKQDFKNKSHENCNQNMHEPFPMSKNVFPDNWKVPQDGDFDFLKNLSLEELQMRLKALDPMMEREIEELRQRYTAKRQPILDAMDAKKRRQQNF
As to the kind of experiment: STK3 Invitrogen selectivity data (BI). Conditions: Compound concentration 3.0 uM.

Tyrosine-protein kinase JAK2 (Homo sapiens), O60674 [V617F], sequence (O60674 whole entry V617F): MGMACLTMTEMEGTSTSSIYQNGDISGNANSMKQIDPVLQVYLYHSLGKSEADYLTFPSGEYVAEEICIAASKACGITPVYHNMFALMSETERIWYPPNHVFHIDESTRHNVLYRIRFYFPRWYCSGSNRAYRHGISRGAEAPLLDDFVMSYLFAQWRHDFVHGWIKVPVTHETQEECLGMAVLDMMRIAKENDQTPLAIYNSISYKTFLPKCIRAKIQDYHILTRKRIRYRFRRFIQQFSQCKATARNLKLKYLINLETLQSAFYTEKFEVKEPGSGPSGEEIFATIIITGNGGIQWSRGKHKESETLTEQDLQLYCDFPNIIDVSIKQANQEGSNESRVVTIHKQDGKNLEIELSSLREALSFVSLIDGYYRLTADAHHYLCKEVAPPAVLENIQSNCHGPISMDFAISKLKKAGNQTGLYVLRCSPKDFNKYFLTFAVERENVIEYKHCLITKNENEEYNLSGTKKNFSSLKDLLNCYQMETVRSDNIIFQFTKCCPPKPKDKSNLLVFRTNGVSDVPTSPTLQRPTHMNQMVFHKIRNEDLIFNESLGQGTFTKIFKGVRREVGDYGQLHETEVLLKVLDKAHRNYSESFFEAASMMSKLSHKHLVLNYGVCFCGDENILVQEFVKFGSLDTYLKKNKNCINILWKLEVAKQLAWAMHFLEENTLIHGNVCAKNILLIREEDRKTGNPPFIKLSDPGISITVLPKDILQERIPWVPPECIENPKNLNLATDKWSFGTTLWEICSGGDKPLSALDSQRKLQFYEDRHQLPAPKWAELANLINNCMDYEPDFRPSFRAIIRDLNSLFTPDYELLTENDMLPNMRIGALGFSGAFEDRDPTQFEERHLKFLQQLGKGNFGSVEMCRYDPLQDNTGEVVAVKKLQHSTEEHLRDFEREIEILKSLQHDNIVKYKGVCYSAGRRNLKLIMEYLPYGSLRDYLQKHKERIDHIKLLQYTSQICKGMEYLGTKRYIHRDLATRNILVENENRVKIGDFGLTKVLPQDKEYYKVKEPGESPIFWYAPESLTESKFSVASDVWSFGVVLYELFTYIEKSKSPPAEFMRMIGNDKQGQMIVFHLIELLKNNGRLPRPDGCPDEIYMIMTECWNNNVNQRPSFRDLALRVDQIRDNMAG
Death-associated protein kinase 3 (Homo sapiens), sequence (O43293 whole entry, looked up): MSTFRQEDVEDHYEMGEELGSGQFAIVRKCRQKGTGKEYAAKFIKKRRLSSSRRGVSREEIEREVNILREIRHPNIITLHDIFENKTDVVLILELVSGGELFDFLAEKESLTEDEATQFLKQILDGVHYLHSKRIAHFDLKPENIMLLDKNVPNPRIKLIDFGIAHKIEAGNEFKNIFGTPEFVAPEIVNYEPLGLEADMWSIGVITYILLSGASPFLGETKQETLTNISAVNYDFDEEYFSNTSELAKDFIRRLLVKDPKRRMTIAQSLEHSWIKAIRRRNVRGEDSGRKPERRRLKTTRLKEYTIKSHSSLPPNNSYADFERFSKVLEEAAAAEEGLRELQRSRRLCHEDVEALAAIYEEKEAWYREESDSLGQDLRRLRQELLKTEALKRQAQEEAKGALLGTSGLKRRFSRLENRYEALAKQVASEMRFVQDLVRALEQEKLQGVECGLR
Mitogen-activated protein kinase kinase kinase 13 (Homo sapiens), sequence (O43283 whole entry): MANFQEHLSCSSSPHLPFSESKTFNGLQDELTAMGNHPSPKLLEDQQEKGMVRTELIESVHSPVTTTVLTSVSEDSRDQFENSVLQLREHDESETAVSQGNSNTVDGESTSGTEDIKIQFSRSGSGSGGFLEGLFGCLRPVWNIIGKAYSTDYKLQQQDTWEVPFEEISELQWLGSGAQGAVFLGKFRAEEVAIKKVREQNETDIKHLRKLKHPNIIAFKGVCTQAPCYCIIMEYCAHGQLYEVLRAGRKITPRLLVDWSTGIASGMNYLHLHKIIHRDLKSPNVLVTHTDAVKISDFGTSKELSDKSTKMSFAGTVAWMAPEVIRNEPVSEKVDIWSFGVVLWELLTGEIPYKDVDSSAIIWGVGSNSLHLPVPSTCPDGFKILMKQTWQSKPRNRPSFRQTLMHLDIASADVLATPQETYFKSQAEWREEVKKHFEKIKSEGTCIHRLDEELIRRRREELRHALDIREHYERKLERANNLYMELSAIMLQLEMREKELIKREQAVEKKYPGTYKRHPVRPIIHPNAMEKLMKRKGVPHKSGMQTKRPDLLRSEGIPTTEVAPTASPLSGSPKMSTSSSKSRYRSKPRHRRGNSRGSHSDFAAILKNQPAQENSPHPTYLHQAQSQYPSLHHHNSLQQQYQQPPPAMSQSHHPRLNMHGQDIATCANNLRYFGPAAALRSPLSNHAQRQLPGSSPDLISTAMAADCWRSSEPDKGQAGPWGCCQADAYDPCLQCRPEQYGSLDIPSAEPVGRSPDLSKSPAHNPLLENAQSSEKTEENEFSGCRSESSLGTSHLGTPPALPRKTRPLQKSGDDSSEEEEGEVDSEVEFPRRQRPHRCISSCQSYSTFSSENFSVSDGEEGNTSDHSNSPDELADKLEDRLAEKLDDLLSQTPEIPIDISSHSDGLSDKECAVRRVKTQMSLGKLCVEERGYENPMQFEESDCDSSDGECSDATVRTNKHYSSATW
Arachidonate 5-lipoxygenase-activating protein, sequence (P20292 whole entry): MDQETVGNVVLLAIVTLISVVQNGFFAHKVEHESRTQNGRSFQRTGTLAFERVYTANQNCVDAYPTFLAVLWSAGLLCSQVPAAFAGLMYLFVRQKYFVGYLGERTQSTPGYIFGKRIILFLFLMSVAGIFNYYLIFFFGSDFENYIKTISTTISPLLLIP

Take `CN(C)C(=O)Cn1cc(-c2nc(C3(c4ccc(-c5cnc(N)nc5)cc4)CC3)no2)cn1` [BI 0153]: the results for the residual activity in [1], in experiment [2] and in [3] were 92%, 83% and 100%, respectively.

As a reminder, the IC50 is the concentration that gives 50% inhibition. Higher therefore signals weaker potency in that assay. For the compound `CN(C)C(=O)Cn1cc(-c2nc([C@@](C)(c3ccc(-c4cnc(N)nc4)cc3)C3CC3)no2)cn1` [BI 665915], the residual activity in [4] is 100%; in experiment [5], 97%; in experiment [6] it was 86%; in experiment [7] it was 69.5%; in [8], 100%; in experiment [9], 95%. Also, the residual activity is 101% in experiment [10]; 60% in experiment [12]; 91% in experiment [13]; 89% in [14]; 108% in experiment [15]; 87% in [16]. For the same compound, the residual activity in [17] is 103%; in [18], 97.5%; in experiment [19] it was 96%; in experiment [20] it was 103%; in [21], 104%. For the same compound, half-maximal inhibition in [11] (IC50) was put at 4.8 µM.
